Format in all cases: binding
The target of one assay is T1, NPBWR2 (Homo sapiens, UniProt P48146).
T1 construct: purchased Promega (in-house HiBiT-GPCR construct library, NanoBRET)
Put plainly: NanoBRET screen HiBiT-NPBWR2 in HEK293. On the procedure:
(§1) Each tracer candidate was screened across the entire library of HiBiT-GPCR constructs using NanoBRET as the detection modality. As depicted in Figure 4A, the specificity of interactions was evaluated through decrease in BRET due to competitive displacement of a bound tracer by excess parental compound. Each tracer was analyzed for binding to each HiBiT-GPCR fusion in the absence and in the presence of competing parental compound. Briefly, HEK293 cells were transfected with HiBiT-GPCR constructs diluted into promoterless DNA to reduce expression and maximize translocation to the cell surface. Each tracer candidate was then screened at concentrations of 1 μM and 0.1 μM across cells expressing these fusions. Cells were treated for 1.5 h with tracer either alone or in the presence of 20 μM competing parental compound (i.e., control). BRET was measured upon addition of purified LgBiT and subsequent complementation with HiBiT genetically fused to a GPCR. The specificity of interactions was assessed through a decrease in BRET signal due to competitive displacement of the bound tracer. To further gauge the robustness of these interactions, the fold response over the control (i.e., BRETtracer/BRETcontrol) was calculated. We chose a 1.5-fold response, which translates to ≥7-fold signal over noise as the minimal threshold required to score an interaction as positive. […]. Below we highlight the screening results obtained for our exemplary fluorescent tracers based on Clozapine, Amitriptyline and AZD1283.
(§2) HiBiT-GPCR DNA constructs were diluted in 10 mM Tris pH 8 to a final concentration of 0.01 μg/μL, arrayed in 96-well plates and stored at −20 °C. For transfection, HEK293 cells were suspended in Opti-MEM (without phenol red) supplemented with 2% fetal bovine serum (Seradigm) and 100 units/mL penicillin–streptomycin (Gibco) at a final concentration of 220,000 cells/mL and dispensed into white 96-well plates at 90 μL/well. Subsequent transfections and screens were carried using an Agilent Bravo Automated Liquid Handling Platform. First, the 96-well HiBiT DNA arrays were diluted 25-fold in Opti-MEM (without serum or phenol red) to a final concentration of 0.0004 μg/μL and 20 μL of the diluted DNAs were transferred into new 96-well plates. Next, promoterless carrier DNA (1 μg/μL) was diluted 25-fold (0.04 μg/μL) and then dispensed into the diluted arrays at 20 μL/well. Following brief mixing, Viafect transfection reagent (Promega) diluted 16-fold into Opti-MEM was dispensed into the plates at 40 μL/well. After mixing by pipetting, plates were incubated for 10 min on the pipetting station deck. The DNA-transfection reagent complexes were then added to plates containing cells. To facilitate the screen, 10 μL of DNA-transfection reagent complexes were added in duplicates to the top 4 and bottom 4 rows, resulting in two identical 48-well arrays per plate. Plates with transfected cells were incubated for 18–20 h at 37 °C/5% CO2. A screen of each tracer across the entire library using two different concentrations requires duplicate plates of transfected cells. Depending on the number of tracers being screened, transfections can be scaled up using the same ratios. The next day, for each tracer, four 20× screening solutions in tracer dilution buffer (Promega) were prepared: two duplicates at final concentration of 20 μM and two duplicates at a final concentration of 2 μM. A competing unmodified compound was added to one of each duplicate at a final concentration of 400 μM. The four resulting solutions were diluted 4-fold in Opti-MEM without serum or phenol red to generate 5× solutions (5 µM and 0.5 µM tracer +/− 100 μM competing compound). To screen the library, a BioTek MultiFlo FX liquid dispenser was used to dispense 22.5 µL of tracer solution to the top 4 rows and 22.5 µL tracer + competing compound solution to the 4 bottom rows. Plates were briefly mixed on an orbital shaker and incubated for 1.5 h at room temperature. […]
A general note: In BRET a luciferase serves as donor, and the signal depends on an acceptor being close.

The target in another assay is T2, HTR4 (Homo sapiens, UniProt Q13639).
T2 construct: purchased Promega (in-house HiBiT-GPCR construct library, NanoBRET)
T2 sequence (Q13639 whole entry): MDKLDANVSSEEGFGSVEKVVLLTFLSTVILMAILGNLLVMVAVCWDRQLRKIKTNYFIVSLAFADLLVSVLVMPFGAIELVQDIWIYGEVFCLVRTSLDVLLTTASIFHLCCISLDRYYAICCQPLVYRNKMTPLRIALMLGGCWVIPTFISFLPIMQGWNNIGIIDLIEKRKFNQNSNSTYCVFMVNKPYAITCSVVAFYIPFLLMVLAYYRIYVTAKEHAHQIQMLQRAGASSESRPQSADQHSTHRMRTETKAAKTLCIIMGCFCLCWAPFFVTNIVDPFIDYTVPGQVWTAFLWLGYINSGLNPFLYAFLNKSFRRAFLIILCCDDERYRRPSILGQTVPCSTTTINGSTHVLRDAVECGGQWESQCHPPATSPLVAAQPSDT
As to the kind of experiment: NanoBRET screen HiBiT-HTR4 in HEK293. On the procedure:
as §1, §2

Another assay addresses T3, HCRTR2 (Homo sapiens, UniProt O43614).
T3 construct: purchased Promega (in-house HiBiT-GPCR construct library, NanoBRET)
T3 sequence (O43614 1-444): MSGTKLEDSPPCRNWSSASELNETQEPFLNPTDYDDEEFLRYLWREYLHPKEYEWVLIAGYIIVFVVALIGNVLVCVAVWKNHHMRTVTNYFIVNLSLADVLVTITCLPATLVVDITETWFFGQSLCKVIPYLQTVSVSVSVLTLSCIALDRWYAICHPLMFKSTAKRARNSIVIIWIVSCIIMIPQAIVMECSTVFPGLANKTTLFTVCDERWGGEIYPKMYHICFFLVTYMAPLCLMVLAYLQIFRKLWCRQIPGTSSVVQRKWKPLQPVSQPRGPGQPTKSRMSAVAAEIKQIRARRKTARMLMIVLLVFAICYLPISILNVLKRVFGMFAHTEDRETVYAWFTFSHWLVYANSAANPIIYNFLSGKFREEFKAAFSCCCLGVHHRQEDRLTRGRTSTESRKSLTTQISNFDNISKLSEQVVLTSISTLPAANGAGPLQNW
Put plainly: NanoBRET screen HiBiT-HCRTR2 in HEK293. The protocol: as §1, §2

Another assay addresses T4, OPRK1 (Homo sapiens, UniProt P41145).
T4 construct: purchased Promega (in-house HiBiT-GPCR construct library, NanoBRET)
Put plainly: NanoBRET screen HiBiT-OPRK1 in HEK293. On the procedure: as §1, §2

The target of a further assay is T5, CXCR3 (Homo sapiens, UniProt P49682).
T5 construct: purchased Promega (in-house HiBiT-GPCR construct library, NanoBRET)
T5 sequence (P49682 1-368): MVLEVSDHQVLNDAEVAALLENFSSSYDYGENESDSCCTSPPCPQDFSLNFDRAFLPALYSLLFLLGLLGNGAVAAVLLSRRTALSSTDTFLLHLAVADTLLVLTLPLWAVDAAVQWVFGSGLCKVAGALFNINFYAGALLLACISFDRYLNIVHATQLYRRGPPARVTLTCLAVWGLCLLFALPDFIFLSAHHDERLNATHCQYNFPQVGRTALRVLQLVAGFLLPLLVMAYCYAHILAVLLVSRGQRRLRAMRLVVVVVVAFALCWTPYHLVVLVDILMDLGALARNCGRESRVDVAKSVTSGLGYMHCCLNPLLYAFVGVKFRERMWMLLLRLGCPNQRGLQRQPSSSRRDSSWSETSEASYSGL
As to the kind of experiment: NanoBRET screen HiBiT-CXCR3 in HEK293. The protocol:
as §1, §2

The target of a further assay is T6, GCGR (Homo sapiens, UniProt P47871).
T6 construct: purchased Promega (in-house HiBiT-GPCR construct library, NanoBRET)
T6 sequence (P47871 26-477): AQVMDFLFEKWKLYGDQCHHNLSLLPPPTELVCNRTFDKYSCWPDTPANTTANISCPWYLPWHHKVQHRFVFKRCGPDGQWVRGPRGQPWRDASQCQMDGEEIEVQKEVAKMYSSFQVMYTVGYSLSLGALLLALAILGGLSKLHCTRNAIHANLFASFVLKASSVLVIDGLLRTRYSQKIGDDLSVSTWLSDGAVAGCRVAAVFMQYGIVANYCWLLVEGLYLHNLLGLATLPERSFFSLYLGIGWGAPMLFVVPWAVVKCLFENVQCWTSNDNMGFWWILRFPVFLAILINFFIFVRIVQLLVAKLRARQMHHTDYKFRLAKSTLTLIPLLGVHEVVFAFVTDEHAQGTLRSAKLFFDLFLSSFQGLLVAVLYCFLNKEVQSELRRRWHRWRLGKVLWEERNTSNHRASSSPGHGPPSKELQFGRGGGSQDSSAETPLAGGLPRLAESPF
As to the kind of experiment: NanoBRET screen HiBiT-GCGR in HEK293. The protocol: as §1, §2

Each structure is given as a SMILES string.

The text below walks through data of article PMC8151276, “An Integrated Approach toward NanoBRET Tracers for Analysis of GPCR Ligand Engagement” (Molecules, 2021).

T1 sequence (P48146 whole entry): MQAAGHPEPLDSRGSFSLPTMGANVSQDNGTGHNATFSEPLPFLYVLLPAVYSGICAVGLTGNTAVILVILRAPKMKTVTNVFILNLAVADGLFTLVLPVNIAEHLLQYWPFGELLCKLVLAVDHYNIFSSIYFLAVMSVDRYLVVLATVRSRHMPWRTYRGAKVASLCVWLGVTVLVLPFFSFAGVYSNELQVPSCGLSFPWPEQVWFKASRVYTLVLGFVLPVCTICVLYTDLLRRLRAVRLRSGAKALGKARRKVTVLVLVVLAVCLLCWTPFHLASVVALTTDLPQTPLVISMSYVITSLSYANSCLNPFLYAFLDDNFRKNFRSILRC
T4 sequence (P41145 whole entry): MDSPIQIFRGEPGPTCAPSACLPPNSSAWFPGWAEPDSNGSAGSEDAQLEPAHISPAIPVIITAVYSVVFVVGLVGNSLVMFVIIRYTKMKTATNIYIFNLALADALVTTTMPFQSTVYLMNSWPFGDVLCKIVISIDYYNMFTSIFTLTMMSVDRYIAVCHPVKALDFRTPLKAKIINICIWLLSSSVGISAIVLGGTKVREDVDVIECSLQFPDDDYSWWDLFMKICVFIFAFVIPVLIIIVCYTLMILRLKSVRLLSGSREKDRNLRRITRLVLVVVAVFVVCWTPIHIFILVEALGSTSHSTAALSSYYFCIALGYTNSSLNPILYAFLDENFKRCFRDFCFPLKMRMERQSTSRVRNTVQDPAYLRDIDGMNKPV

Take `COc1ccc2c(n1)c(CCNC(C)=O)cn2CCNC(=O)CCc1ccc2n1[B-](F)(F)[N+]1=C(c3ccc[nH]3)C=CC1=C2` [Azamelatonin-1-NB590]: the “NanoBRET Fold Response” value at NPBWR2 (0.1μM tracer) was found to be 0.91; at NPBWR2 (1μM tracer), 0.82; at HTR4 (0.1μM tracer), 0.95; on HTR4 (1μM tracer), 1.02; at HCRTR2 (0.1μM tracer) it was 1.04; on HCRTR2 (1μM tracer), 1.30. Besides, the “NanoBRET Fold Response” value was 0.92 at OPRK1 (0.1μM tracer); 0.92 at OPRK1 (1μM tracer); 1.19 at CXCR3 (0.1μM tracer); 0.93 at CXCR3 (1μM tracer); 1.01 at GCGR (0.1μM tracer); 1.10 on GCGR (1μM tracer).
As to `CC(C)N(CC[C@H](c1ccccc1)c1cc(CCNC(=O)c2ccc(CNC(=O)CCc3ccc4n3[B-](F)(F)[N+]3=C(c5ccc[nH]5)C=CC3=C4)cc2)ccc1O)C(C)C` [Tolterodine-BZ-NB590], the “NanoBRET Fold Response” value at NPBWR2 (NPBWR2, tracer 0.1μM) amounted to 0.96; on NPBWR2 (NPBWR2, tracer 1μM), 1.06; at HTR4 (HTR4, tracer 0.1μM), 0.94; at HTR4 (HTR4, tracer 1μM) it was 0.99; at HCRTR2 (HCRTR2, tracer 0.1μM), 0.91; at HCRTR2 (HCRTR2, tracer 1μM) it was 1.06. The “NanoBRET Fold Response” value on OPRK1 (OPRK1, tracer 0.1μM) was found to be 0.90; at OPRK1 (OPRK1, tracer 1μM), 0.96; on CXCR3 (CXCR3, tracer 0.1μM), 1.11; at CXCR3 (CXCR3, tracer 1μM) it was 0.96; on GCGR (GCGR, tracer 0.1μM), 0.82; at GCGR (GCGR, tracer 1μM), 1.00.
Regarding `O=C(CCc1ccc2n1[B-](F)(F)[N+]1=C(c3ccc[nH]3)C=CC1=C2)NCCOCCOCCNC(=O)OCCOCCN1CCN(C2=Nc3ccccc3Sc3ccccc32)CC1` [Quetiapine-a-2-NB590], the “NanoBRET Fold Response” value at NPBWR2 (NPBWR2, tracer 0.1μM) is given as 0.97; at NPBWR2 (NPBWR2, tracer 1μM), 1.09; at HTR4 (HTR4, tracer 0.1μM), 0.98; at HTR4 (HTR4, tracer 1μM) it was 1.00; at HCRTR2 (HCRTR2, tracer 0.1μM) it was 1.01; on HCRTR2 (HCRTR2, tracer 1μM), 0.84. Besides, the “NanoBRET Fold Response” value on OPRK1 (OPRK1, tracer 0.1μM) was found to be 0.94; at OPRK1 (OPRK1, tracer 1μM), 0.97; at CXCR3 (CXCR3, tracer 0.1μM) it was 1.00; at CXCR3 (CXCR3, tracer 1μM), 1.14; at GCGR (GCGR, tracer 0.1μM), 0.94; at GCGR (GCGR, tracer 1μM), 0.73.
Take `Cc1cc2c(s1)Nc1ccccc1N=C2N1CCN(CCCNC(=O)CCOCCOCCOCCOCCNC(=O)CCc2ccc3n2[B-](F)(F)[N+]2=C(c4ccc[nH]4)C=CC2=C3)CC1` [Olanzapine-a-2-NB590]: the “NanoBRET Fold Response” value at NPBWR2 (NPBWR2, tracer 0.1μM) was 0.98; on NPBWR2 (NPBWR2, tracer 1μM), 1.02; at HTR4 (HTR4, tracer 0.1μM), 1.02; at HTR4 (HTR4, tracer 1μM) it was 1.02; at HCRTR2 (HCRTR2, tracer 0.1μM), 0.95; on HCRTR2 (HCRTR2, tracer 1μM), 0.97. Moreover, the “NanoBRET Fold Response” value turned out to be 0.92 on OPRK1 (OPRK1, tracer 0.1μM); 1.16 on OPRK1 (OPRK1, tracer 1μM); 1.05 at CXCR3 (CXCR3, tracer 0.1μM); 0.89 at CXCR3 (CXCR3, tracer 1μM); 0.97 at GCGR (GCGR, tracer 0.1μM); 0.95 on GCGR (GCGR, tracer 1μM).
As to `N#CN/C(=N\CCNC(=O)c1ccc(N)cc1)NCCCOc1cccc(CN2CCCCC2)c1` [Aminopotentidine (unmodified)], the “NanoBRET Fold Response” value on HTR4 (HTR4, other tracers/Aminopotentidine (unmodified), 0.1μM) came out at 1.01; on HTR4 (HTR4, other tracers/Aminopotentidine (unmodified), 1μM), 1.19; on OPRK1 (OPRK1, other tracers/Aminopotentidine (unmodified), 0.1μM) it was 1.75; on OPRK1 (OPRK1, other tracers/Aminopotentidine (unmodified), 1μM), 1.55.
Turning to `COc1ccccc1N1CCN(CCCCN2C(=O)c3ccc(CNC(=O)CCOCCOCCOCCOCCNC(=O)CCc4ccc5n4[B-](F)(F)[N+]4=C(c6ccc[nH]6)C=CC4=C5)cc3C2=O)CC1` [NAN-190-2-NB590], the “NanoBRET Fold Response” value was 1.00 on NPBWR2 (NPBWR2, tracer 0.1μM); 1.02 on HCRTR2 (HCRTR2, tracer 0.1μM); 1.00 on HCRTR2 (HCRTR2, tracer 1μM); 1.02 at OPRK1 (OPRK1, tracer 0.1μM); 0.94 at CXCR3 (CXCR3, tracer 0.1μM); 1.06 on GCGR (GCGR, tracer 0.1μM). The “NanoBRET Fold Response” value at GCGR (GCGR, tracer 1μM) was 1.06.
Take `CN(CCC=C1c2ccccc2CCc2ccccc21)C(=O)CCOCCOCCOCCOCCNC(=O)CCc1ccc2n1[B-](F)(F)[N+]1=C(c3ccc[nH]3)C=CC1=C2` [Amitriptyline-e-2-NB590]: the entries for the “NanoBRET Fold Response” value at OPRK1 (tracer at 1μM) and on CXCR3 (tracer at 1μM) were 1.05 and 1.22, respectively.
In the case of `CN(C)CCC=C1c2ccccc2CCc2ccc(C(=O)NCCNC(=O)CCOCCOCCOCCOCCNC(=O)CCc3ccc4n3[B-](F)(F)[N+]3=C(c5ccc[nH]5)C=CC3=C4)cc21` [Amitriptyline-a-2-NB590], the “NanoBRET Fold Response” value is 1.05 at HCRTR2 (tracer at 0.1μM); 1.08 at HCRTR2 (tracer at 1μM); 1.04 at OPRK1 (tracer at 0.1μM); 1.02 at OPRK1 (tracer at 1μM); 1.00 at CXCR3 (tracer at 0.1μM); 0.97 on CXCR3 (tracer at 1μM).
